Experimental data published in paper PMC3563715 (Molecular pharmaceutics, 2013).
Where two headings read alike, the source gives them in different places.

Key:
[1] = system: collagen induced arthritis (CIA); assay: Efficacy against collagen induced arthritis, subcutaneous treatment; format: in vivo, DBA/1J mice; conditions: 5.0 nmol/animal SC on day 22 and 34; between days 34 and 40
[2] = system: systemic arterial pressure; assay: Systemic arterial pressure; format: in vivo, CIA mice; conditions: single IV injection, regardless of dose
[3] = system: collagen induced arthritis (CIA); format: in vivo, DBA/1J mice; conditions: single IV dose on day 22, observed to day 58, 6 mice/group
[4] = cited from earlier work

In the case of “Vasoactive intestinal peptide [free VIP]”, the “duration of disease suppression after cessation of treatment” value [1] is reported as “about a week”, the “time to full recovery of SAP to the norm” value [2] is reported as “approximately one hour” and the “paw thickness and clinical arthritis score” value ([3]; 0.5 nmol/animal) is reported as “did not show any therapeutic efficacy”. For the same substance, the “paw thickness and clinical arthritis score” value ([3]; 1.0 nmol/animal) was “did not show any therapeutic efficacy” and the in vivo half-life [4] was “few minutes”.
